Literature values as cited in US20230404885A1, “EPIDERMAL STEM CELL PROLIFERATION-PROMOTING AGENT” (Shiseido Company, Ltd., priority 2020, published 2023).

What was measured:
heparanase = biological target: T1, heparanase (Homo sapiens, UniProt Q9Y251); conditions: known, see JP 2014-111640
T1 sequence (Q9Y251 36-543): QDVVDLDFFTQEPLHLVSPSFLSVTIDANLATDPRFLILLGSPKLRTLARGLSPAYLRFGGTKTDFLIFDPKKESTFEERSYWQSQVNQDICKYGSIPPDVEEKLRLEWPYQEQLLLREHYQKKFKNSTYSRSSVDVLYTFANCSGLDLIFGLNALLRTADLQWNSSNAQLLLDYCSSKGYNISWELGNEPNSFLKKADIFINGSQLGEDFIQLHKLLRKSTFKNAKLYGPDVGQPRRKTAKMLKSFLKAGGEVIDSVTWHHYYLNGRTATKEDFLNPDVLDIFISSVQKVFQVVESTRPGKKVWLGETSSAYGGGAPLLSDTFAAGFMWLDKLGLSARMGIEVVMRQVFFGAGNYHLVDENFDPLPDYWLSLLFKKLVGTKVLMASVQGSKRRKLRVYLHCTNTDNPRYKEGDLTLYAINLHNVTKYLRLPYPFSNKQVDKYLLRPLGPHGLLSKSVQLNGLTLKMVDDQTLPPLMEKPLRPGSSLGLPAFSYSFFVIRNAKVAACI

MMP-2 = biological target: T2, MMP-2 (Homo sapiens, UniProt P08253); conditions: known
T2 sequence (P08253 110-660): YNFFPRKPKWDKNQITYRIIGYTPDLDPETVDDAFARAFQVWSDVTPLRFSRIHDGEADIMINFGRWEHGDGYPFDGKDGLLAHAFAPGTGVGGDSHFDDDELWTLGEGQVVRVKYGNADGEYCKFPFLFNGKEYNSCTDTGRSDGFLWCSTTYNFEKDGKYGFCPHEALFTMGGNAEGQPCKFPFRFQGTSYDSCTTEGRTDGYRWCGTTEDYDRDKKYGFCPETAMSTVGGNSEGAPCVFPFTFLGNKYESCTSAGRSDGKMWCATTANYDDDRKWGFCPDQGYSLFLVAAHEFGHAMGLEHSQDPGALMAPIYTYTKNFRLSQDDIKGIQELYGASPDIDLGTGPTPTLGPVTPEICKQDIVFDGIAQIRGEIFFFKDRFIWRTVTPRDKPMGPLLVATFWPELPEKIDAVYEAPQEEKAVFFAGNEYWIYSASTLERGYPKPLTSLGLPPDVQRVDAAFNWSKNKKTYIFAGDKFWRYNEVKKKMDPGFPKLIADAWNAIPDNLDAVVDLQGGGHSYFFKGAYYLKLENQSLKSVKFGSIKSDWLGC

MMP-1 = biological target: T3, MMP-1 (Homo sapiens, UniProt P03956); conditions: known
T3 sequence (P03956 100-469): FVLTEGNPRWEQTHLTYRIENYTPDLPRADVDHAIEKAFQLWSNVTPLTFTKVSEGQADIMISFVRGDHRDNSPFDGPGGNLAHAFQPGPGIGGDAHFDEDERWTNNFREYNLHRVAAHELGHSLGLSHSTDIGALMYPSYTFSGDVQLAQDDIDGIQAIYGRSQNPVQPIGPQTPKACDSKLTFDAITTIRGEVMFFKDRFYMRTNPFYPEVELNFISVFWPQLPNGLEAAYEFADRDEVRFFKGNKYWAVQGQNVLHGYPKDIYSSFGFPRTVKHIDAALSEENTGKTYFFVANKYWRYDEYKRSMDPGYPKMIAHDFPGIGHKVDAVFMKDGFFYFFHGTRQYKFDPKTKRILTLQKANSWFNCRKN

MMP-9 = MMP-9 (Homo sapiens, UniProt P14780); conditions: known
Chain of MMP-9 (P14780 94-707): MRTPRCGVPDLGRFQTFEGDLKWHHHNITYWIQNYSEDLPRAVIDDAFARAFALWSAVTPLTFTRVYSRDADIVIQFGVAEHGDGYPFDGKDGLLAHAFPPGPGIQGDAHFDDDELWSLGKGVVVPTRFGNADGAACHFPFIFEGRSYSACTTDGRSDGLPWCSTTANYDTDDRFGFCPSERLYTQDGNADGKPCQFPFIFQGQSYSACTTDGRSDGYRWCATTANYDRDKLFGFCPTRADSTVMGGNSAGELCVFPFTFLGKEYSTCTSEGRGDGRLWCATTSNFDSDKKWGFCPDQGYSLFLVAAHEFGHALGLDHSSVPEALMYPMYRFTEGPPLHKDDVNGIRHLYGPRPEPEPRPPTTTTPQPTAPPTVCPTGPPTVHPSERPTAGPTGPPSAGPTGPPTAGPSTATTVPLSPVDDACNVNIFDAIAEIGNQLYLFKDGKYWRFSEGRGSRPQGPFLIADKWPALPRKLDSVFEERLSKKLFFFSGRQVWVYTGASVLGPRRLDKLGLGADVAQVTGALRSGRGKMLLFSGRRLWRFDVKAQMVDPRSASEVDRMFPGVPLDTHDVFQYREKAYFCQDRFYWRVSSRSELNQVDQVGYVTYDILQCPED

heparanase activity inhibition (heparanase): inhibitors of the heparanase activity | effect on activity of MMP-2 (MMP-2): does not affect | effect on activity of MMP-1 (MMP-1): does not affect | MMP-9 inhibition (MMP-9): inhibits
Structure (SMILES): O=C1NCCN1CCO [S173, 1-(2-hydroxyethyl)-2-imidazolidinone]
